Reference: article PMC9781268, “2-Arylpropionic Acid Pyrazolamides as Cannabinoid CB2 Receptor Inverse Agonists Endowed with Anti-Inflammatory Properties” (Pharmaceuticals, 2022)
Converted amounts (≈) assume the structure as drawn. “Also recorded” adds a separate entry of the source.

How the values were obtained:
[1] = Parallel artificial membrane permeability assay, gastrointestinal (PAMPA-GI / PAMPA-GTI)
Method: A 10 mM solution of each compound (tests and controls) was prepared in DMSO. Then, in a 5 mL glass flask, 250 µL of the freshly prepared solution was homogenized with 4750 µL of PBS at pH 6.6 to a concentration of 10 mM. The solution was then filtered in a 0.45 µm PVDF filter and set aside. Then, 180 µL of a solution of phosphate-bufffered saline (PBS, pH 7.4):DMSO (95:5) was added to the wells of the receptor plate, and 5 µL of the soy L-α-phosphatidylcholine lipid solution (20 mg/mL in dodecane) was added to the wells of the donor plate. After 5 min, the donor plate received 180 µL of the reserved solution containing each compound. […] After this period, the donor plate was removed, and the contents of the recipient plate were transferred to a UV reading plate and read (SpectraMax 5, Molecular Devices) at the maximum wavelengths for each compound. The blank was prepared with 180 µL of PBS solution (pH 7.4):DMSO (95:5). The experiments were carried out in triplicate with two different analyses (n = 2) [37]. The optical density values obtained from the readings at each selected wavelength for each of the compounds were analyzed by comparison with the values of the controls. These values were used to determine the absorbed fraction (Fa %) using the JMP® program version 10.0.

[2] = Parallel artificial membrane permeability assay, blood-brain barrier (PAMPA-BBB)
Method: In a 5 mL glass vial, 1 mg of each compound (test or control) was dissolved in 1 mL of ethanol. Then, 500 μL of ethanol and 3.5 mL of PBS at pH 7.4 were added to this solution. […] After 5 min, the donor plate received 180 μL of each compound solution in triplicate. […] The experiments were performed in triplicate with two different analyses (n = 2).

[3] = Aqueous solubility (thermodynamic, UV spectroscopy); format: physicochemical; details: aqueous buffer, thermodynamic from solid, phosphate buffer pH 7.4, 37 °C
Method: The test was performed based on the absorbance obtained by ultraviolet spectroscopy. The scanning wavelength was determined according to the highest absorbance observed for each compound. Saturated aqueous solution of the analyzed compounds were stirred for 4 h at 37 °C, and then filtered through a 0.45 µm PVDF filter and transferred to a quartz cuvette (10 mm optical path) for reading. Solubility was determined by linear regression based on the equation of the line.

[4] = system: formalin-induced licking behavior in mice; assay: Formalin-induced licking behavior; format: in vivo, Swiss Webster mice
Method: This assay was performed as described by Hunskaar et al. and adapted by Gomes et al.. This model was characterized by a response that occurred in two phases. The first phase (acute neurogenic pain) occurred during the first 5 min after the intraplantar injection of formalin, and the second phase (inflammatory pain) occurred 15 to 30 min post-injection. Mice were pretreated with oral doses of LASSBio-2265 (11, at 1, 3 or 10 mg/kg, p.o.), morphine (2.5 mg/kg, i.p.), acetylsalicylic acid (ASA, 200 mg/kg, p.o.), or the vehicle (same amount of DMSO used to solubilize the substances + NaCl 0.9%) 60 min before the administration of formalin. […] Then, mice (n = 7 per group) received 20 μL of formalin (2.5% v/v) in the dorsal surface of the left hind paw. The time that the mice spent licking the injected paw was immediately recorded. […] The final volume administered to mice was 0.1 mL.

human CB1 = molecular target: T1, human CB1 (Homo sapiens, UniProt P21554); assay: Agonist activity, cAMP in CB1-transfected CHO cells; format: cell-based; details: CB1-expressing CHO cells
T1 construct: host or cells: CHO cells
Method: (§1) Negative and blank controls were performed in triplicate with and without the addition of forskolin, respectively.

human CB2 [5] = molecular target: T2, human CB2 (Homo sapiens, UniProt P34972); assay: Agonist activity, cAMP in CB2-transfected CHO cells; format: cell-based; design: host or cells: CHO cells; details: CB2-expressing CHO cells, from 1 μM
Method: as §1

human CB2 [6] = molecular target: T2, human CB2; assay: Inverse agonist activity, cAMP Hunter CHO-K1 CNR2 Gi cells (HitHunter cAMP XS+); format: cell-based; design: host or cells: cAMP Hunter CHO-K1 CNR2 Gi; details: inverse agonism, cAMP increase, 8 μM (EC20) forskolin
Method: The cellular functional assay used to evaluate the inverse agonist activity of LASSBio-2265 (11) toward the cannabinoid CB2 receptor was carried out at Eurofins DiscoveryX Corporation USA (https://www.discoverx.com/home) under the study number FR095-0025341-Q (accessed on 02 June 2021) using the GPCR Biosensor Assay. Cell line cAMP Hunter CHO-K1 CNR2 Gi was seeded at a total volume of 20 µL into white-walled, 384-well microplates and incubated at 37 °C prior to testing in the presence of 8 μM (EC20) forskolin. The media was aspirated from the cells and replaced with 15 µL a 2:1 solution of Hanks’ balanced salt solution (HBSS)/10 mM Hepes:cAMP XS+ Ab reagent. Intermediate dilution of the sample stocks was performed to generate 4× samples in assay buffer containing 32 μM forskolin. Then, 5 µL of each 4× sample was added to the cells and incubated at 37 °C for 60 min. […] After signal generation, the microplates were read with a PerkinElmer Envision instrument for chemiluminescent signal detection. Compound activity was analyzed using the CBIS data analysis suite (ChemInnovation, San Diego, CA, USA). Percent activity was calculated using the following formula: […]
(§2) Data obtained from duplicate experiments were fit to concentration-response curves by non-linear regression of the Hill equation. Curve-fit parameters and standard errors were calculated using GraphPad Prism 6.0 (Hercules, CA, USA).

plasma carboxylesterases = assay: Plasma stability against enzymatic hydrolysis; format: in vitro ADME, Wistar rats; details: rat plasma, determined after 240 min
Method: For the evaluation of plasma stability against plasma carboxylesterases, a pool of plasma male Wistar rats weighing 300–360 g kept in the vivarium of the Laboratory of Biochemical and Molecular Pharmacology-UFRJ was used. Blood was collected with heparin and kept on ice. Then, the samples were centrifuged at 2000 rpm for 15 min at 20 °C, with subsequent removal of the plasma. The plasma was then diluted 80% (v/v) with phosphate buffer (PBS; pH = 7.4) at 37 °C. The experiments performed in this work were approved by the Ethics Committee on the Use of Animals in Scientific Experiments of the Health Sciences Center of the Federal University of Rio de Janeiro (Number 028/15). The biological matrix was incubated at 37 °C under agitation for 30, 60, 120, and 240 min. The degree of degradation was evaluated by HPLC-PDA with methyl 1,1′bisphenyl-4-carboxylate as an internal standard (PI), using an isocratic mobile phase of 70%:30% acetonitrile:water (0–15 min), an injection volume of 20 μL, a flow rate of 1 mL/min, and detection at 254 nm.

[7] = Distribution coefficient at pH 7.4 (shake-flask, octanol/phosphate buffer); format: physicochemical; details: 1-octanol/buffer pH 7.4; n-octanol/buffer partitioning at pH 7.4, UV method; read-out: Log D7.4
Method: The assay was performed based on the shake-flask method and the absorbance readings by ultraviolet spectroscopy at maximum absorbance wavelength. To a Falcon tube with a capacity of 15 mL, 5 mL of buffer solution at pH 7.4 and 5 mL of 1-octanol were added. Then, the tested compounds were added at defined concentrations of approximately 10–15 µM, and the mixtures were homogenized via vigorous manual shaking. Next, the Falcon tubes were stirred for 4 h at 37 °C, and the experiment was carried out in triplicate for each compound. Subsequently, each sample was placed in a separatory funnel, and the collected aqueous phase was filtered through a 0.45 µm PVDF filter and transferred to a quartz cuvette (10 mm optical path) for UV/Vis reading. The distribution coefficient of each compound at pH 7.4 was determined by linear regression using the straight-line equation [33].

human CB2 [8] = molecular target: T2, human CB2; assay: Human CB2 (agonist radioligand) receptor binding assay, [3H]-WIN 55212-2; design: host or cells: cAMP Hunter CHO-K1 CNR2 Gi; details: membranes from CB2-expressing CHO cells, [3H]-WIN55212-2 radioligand, duplicate
Method: Assays of binding to CB2 receptors were performed at Eurofins Discovery France (https://www.eurofinsdiscoveryservices.com/) under the study number 100057099 (accessed on 3 June 2021) using the protocol previously published by Munro, Thomas, and Abu-Shaar. Human recombinant CB2 receptors were expressed in CHO cells, and binding was performed with [^3H]-WIN 55212-2, which is a nonselective agonist radioligand. The analysis was performed using software developed at Cerep (Hill software, Santa Barbara, CA, USA) and SigmaPlot 4.0 for Windows (^©1997 by SPSS Inc., Chicago, IL, USA).
as §2

T2 sequence (P34972 whole entry): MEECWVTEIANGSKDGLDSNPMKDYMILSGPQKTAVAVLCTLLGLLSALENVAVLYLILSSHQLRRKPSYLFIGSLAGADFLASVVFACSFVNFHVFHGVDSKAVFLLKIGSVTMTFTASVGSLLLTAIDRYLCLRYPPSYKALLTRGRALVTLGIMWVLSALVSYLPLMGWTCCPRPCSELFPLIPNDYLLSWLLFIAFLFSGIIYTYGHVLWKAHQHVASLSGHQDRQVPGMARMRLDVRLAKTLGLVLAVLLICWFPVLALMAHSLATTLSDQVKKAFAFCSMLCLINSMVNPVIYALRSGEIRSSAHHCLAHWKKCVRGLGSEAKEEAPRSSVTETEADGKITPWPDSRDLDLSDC
T1 sequence (P21554 whole entry): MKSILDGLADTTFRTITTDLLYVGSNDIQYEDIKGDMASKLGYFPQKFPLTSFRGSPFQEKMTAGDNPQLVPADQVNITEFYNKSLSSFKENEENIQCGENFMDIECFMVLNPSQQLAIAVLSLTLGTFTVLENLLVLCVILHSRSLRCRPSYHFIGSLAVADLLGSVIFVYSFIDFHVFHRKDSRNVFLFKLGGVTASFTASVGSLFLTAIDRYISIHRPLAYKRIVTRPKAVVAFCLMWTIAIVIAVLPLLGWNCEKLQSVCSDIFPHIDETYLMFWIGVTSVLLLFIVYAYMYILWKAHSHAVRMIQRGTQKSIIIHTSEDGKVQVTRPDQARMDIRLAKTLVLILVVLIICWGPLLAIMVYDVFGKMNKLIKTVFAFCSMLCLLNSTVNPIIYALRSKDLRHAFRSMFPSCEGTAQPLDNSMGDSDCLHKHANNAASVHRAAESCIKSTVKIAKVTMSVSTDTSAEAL

Papp at 8 h, 0.5 mM ([1]; PAMPA): 10.2 ×10⁻⁶ cm/s | Pe Exp ([1]; Table S1, PAMPA-GTI): 10,18 10-6 cm/s | Fa ([1]; Table S1, PAMPA-GTI, absorbed fraction): 97,91% | PAMPA-GI Fa Exp ([1]; absorbed fraction, soybean L-α-phosphatidylcholine membrane): 97.91% | Papp at 2.75 h, 0.2 mg/mL ([2]; PAMPA, pH 7.4): 9.26 ×10⁻⁶ cm/s | Classification ([2]; Table S2, PAMPA-BBB): CNS + | Pe experimental ([2]; Table S2, PAMPA-BBB): 9,26 10-6 cm s-1 | solubility at 4 h [3]: 68.5 µM (≈ 30.4 µg/mL) | Effect on cAMP concentration (human CB1): no effect was observed | Effect on cAMP concentration (human CB2 [5]): important effect starting from 1 μM | Emax (human CB2 [6]; CHO-K1, read-out: Emax (efficacy, % of the maximum effect)): 63% | EC50 (human CB2 [6]): 0.369 ± 0.03 µM | Plasma Metabolization Rate (plasma carboxylesterases): 13.04% | logD [7]: 1.98 | Ki (human CB2 [8]): 16 µM
Structure (SMILES): Cc1c(N(C)C(=O)C(C)c2ccc(-c3ccccc3)c(F)c2)c(=O)n(-c2ccccc2)n1C (centres unmarked) [Compound 11, N-(1,5-dimethyl-3-oxo-2-phenyl-2,3-dihydro-1H-pyrazol-4-yl)-2-(2-fluoro-[1,1’-biphenyl]-4-yl)-N-methylpropanamide]
Classification ([1]; Table S1, PAMPA-GTI): HIGH (high intestinal permeability: >70%) | PAMPA-BBB Score ([2]; porcine brain lipid membrane): CNS+ (CNS+ (high predicted BBB permeability) Pe > 4.0 × 10^−6 cm/s) | Antinociceptive effect in the formalin test ([4]; 3 mg/kg): decreased pain behaviour | Analgesia in the second (late, inflammatory) phase of the formalin test ([4]; LASSBio-2265 1, 3 and 10 mg/kg p.o., morphine 2.5 mg/kg, ASA 200 mg/kg, listed as LASSBio-2265 (11)): remarkable analgesic activity in the late inflammatory phase; also recorded: comparable to both morphine and ASA | Analgesia in the first phase of the formalin test ([4]; morphine 2.5 mg/kg i.p., ASA 200 mg/kg p.o., LASSBio-2265 1, 3 and 10 mg/kg p.o., compared to vehicle): only morphine (2.5 mg/kg) promoted significant analgesia
